# Read-outs that look alike come from different tables or passages of the source.
# Legend:
# Test in all cases: MIC, broth microdilution
# [1] = system: S. aureus; type: cell-based, Staphylococcus aureus
# Procedure: (§1) MICs were determined by the microdilution method according to the Clinical and Laboratory Standards Institute guidelines. […] Finally, the 96-well plates were incubated at 37 °C for 16–20 h to observe and record the results. […] The assay for MICs was replicated at least three times.
# [2] = system: H. influenzae; type: cell-based, Haemophilus influenzae
# Procedure: as §1
# [3] = system: S. pneumoniae; type: cell-based, Streptococcus pneumoniae
# Procedure: as §1
# [4] = system: S. pyogenes; type: cell-based, Streptococcus pyogenes
# Procedure: as §1
# [5] = Staphylococcus aureus, S. aureus 15B196, c-ermB, read-out: MIC
# [6] = Staphylococcus aureus, S. aureus PU32, i-ermA, read-out: MIC
# [7] = Haemophilus influenzae, ATCC49247, H. influenzae ATCC49247, Azi-S, read-out: MIC
# [8] = Streptococcus pneumoniae, ATCC49619, S. pneumoniae ATCC49619, Ery-S, read-out: MIC
# [9] = Streptococcus pneumoniae, S. pneumoniae 07P390, c-ermB, read-out: MIC
# [10] = Streptococcus pneumoniae, S. pneumoniae PU09, mef, read-out: MIC
# [11] = Streptococcus pyogenes, S. pyogenes 12-206, c-ermTR, read-out: MIC
# [12] = Streptococcus pyogenes, S. pyogenes 01-968, i-ermTR (Table S5), read-out: MIC
# [13] = Streptococcus pyogenes, S. pyogenes 12-206, c-ermB (Table S5), read-out: MIC
SMILES,"MIC ([1]; S. aureus 15B196, c-ermB)","MIC ([1]; S. aureus PU32, i-ermA)","MIC ([2]; H. influenzae ATCC49247, Azi-S)","MIC ([3]; S. pneumoniae 07P390, c-ermB)","MIC ([3]; S. pneumoniae ATCC49619, Ery-S)","MIC ([3]; S. pneumoniae PU09, mef)","MIC ([4]; S. pyogenes 12-206, c-ermTR)","MIC [1, 5]","MIC [1, 6]","MIC [2, 7]","MIC [3, 8]","MIC [3, 9]","MIC [3, 10]","MIC [4, 11]","MIC ([4]; S. pyogenes 01-968, i-ermTR (Table S5))","MIC ([4]; S. pyogenes 12-206, c-ermB (Table S5))","MIC [4, 12]","MIC [4, 13]"
CC[C@H]1OC(=O)[C@H](C)[C@@H](OC(=O)NCCCCCCCCCc2ccc3c(c2)c(=O)c(C(N)=O)cn3C2CC2)[C@H](C)[C@@H](O[C@@H]2O[C@H](C)C[C@H](N(C)C)[C@H]2O)[C@](C)(OC)C[C@@H](C)C(=NOC)[C@H](C)[C@H]2OC(=O)O[C@@]21C [63b],> 256 µg/mL,64 µg/mL,> 256 µg/mL,16 µg/mL,2 µg/mL,4 µg/mL,16 µg/mL,,,,,,,,,,,
CCC1OC(=O)C(C)C(OC(=O)NCCOCCCC#Cc2ccc3c(=O)c(C(=O)O)cn(C4CC4)c3c2)C(C)C(OC2OC(C)CC(N(C)C)C2O)C(C)(OC)CC(C)C(=NOC)C(C)C2OC(=O)OC12C (stereo not shown) [71c],,,,,,,,256 µg/mL,4 µg/mL,32 µg/mL,≤ 0.008 µg/mL,0.12 µg/mL,≤ 0.008 µg/mL,2 µg/mL,,,,
CCC1OC(=O)C(C)C(OC(=O)NCCCOCCC#Cc2ccc3c(=O)c(C(=O)O)cn(C4CC4)c3c2)C(C)C(OC2OC(C)CC(N(C)C)C2O)C(C)(OC)CC(C)C(=NOC)C(C)C2OC(=O)OC12C (stereo not shown) [72c],,,,,,,,32 µg/mL,2 µg/mL,16 µg/mL,≤ 0.008 µg/mL,0.12 µg/mL,≤ 0.008 µg/mL,1 µg/mL,,,,
CC[C@H]1OC(=O)[C@H](C)[C@@H](OC(=O)NCCCCCCC#Cc2ccc3c(=O)c4c(O)cc(O)cc4oc3c2)[C@H](C)[C@@H](O[C@@H]2O[C@H](C)C[C@H](N(C)C)[C@H]2O)[C@](C)(OC)C[C@@H](C)C(=O)[C@H](C)[C@H]2NC(=O)O[C@@]21C [88m],,,,,,,,,,16 µg/mL,4 µg/mL,16 µg/mL,1 µg/mL,32 µg/mL,,,16 µg/mL,32 µg/mL

# More lines, now with the values ahead:
"MIC ([1]; S. aureus 15B196, c-ermB)","MIC ([1]; S. aureus PU32, i-ermA)","MIC ([2]; H. influenzae ATCC49247, Azi-S)","MIC ([3]; S. pneumoniae 07P390, c-ermB)","MIC ([3]; S. pneumoniae ATCC49619, Ery-S)","MIC ([3]; S. pneumoniae PU09, mef)","MIC ([4]; S. pyogenes 12-206, c-ermTR)","MIC [1, 5]","MIC [1, 6]","MIC [2, 7]","MIC [3, 8]","MIC [3, 9]","MIC [3, 10]","MIC [4, 11]","MIC ([4]; S. pyogenes 01-968, i-ermTR (Table S5))","MIC ([4]; S. pyogenes 12-206, c-ermB (Table S5))","MIC [4, 12]","MIC [4, 13]",SMILES
> 256 µg/mL,128 µg/mL,> 256 µg/mL,32 µg/mL,0.5 µg/mL,4 µg/mL,16 µg/mL,,,,,,,,,,,,CC[C@H]1OC(=O)[C@H](C)[C@@H](OC(=O)NCCCCCCCCc2ccc3c(c2)c(=O)c(C(N)=O)cn3C2CC2)[C@H](C)[C@@H](O[C@@H]2O[C@H](C)C[C@H](N(C)C)[C@H]2O)[C@](C)(OC)C[C@@H](C)C(=NOC)[C@H](C)[C@H]2OC(=O)O[C@@]21C [62b]
> 256 µg/mL,64 µg/mL,> 256 µg/mL,16 µg/mL,4 µg/mL,8 µg/mL,16 µg/mL,,,,,,,,,,,,CC[C@H]1OC(=O)[C@H](C)[C@@H](OC(=O)NCCCCCCCCCCc2ccc3c(c2)c(=O)c(C(N)=O)cn3C2CC2)[C@H](C)[C@@H](O[C@@H]2O[C@H](C)C[C@H](N(C)C)[C@H]2O)[C@](C)(OC)C[C@@H](C)C(=NOC)[C@H](C)[C@H]2OC(=O)O[C@@]21C [64b]
128 µg/mL,4 µg/mL,32 µg/mL,0.25 µg/mL,≤ 0.008 µg/mL,0.06 µg/mL,2 µg/mL,,,,,,,,,,,,CC[C@H]1OC(=O)[C@H](C)[C@@H](OC(=O)NCCOCCC#Cc2ccc3c(=O)c(C(=O)O)cn(C4CC4)c3c2)[C@H](C)[C@@H](O[C@@H]2O[C@H](C)C[C@H](N(C)C)[C@H]2O)[C@](C)(OC)C[C@@H](C)C(=NOC)[C@H](C)[C@H]2OC(=O)O[C@@]21C [70c]
4 µg/mL,1 µg/mL,,,,,1 µg/mL,8 µg/mL,2 µg/mL,,≤ 0.008 µg/mL,,≤ 0.008 µg/mL,0.5 µg/mL,,,,,CC[C@H]1OC(=O)[C@H](C)[C@@H](OC(=O)NCCCCCCC#Cc2ccc3c(=O)c(C(=O)O)cn(C4CC4)c3c2)[C@H](C)[C@@H](O[C@@H]2O[C@H](C)C[C@H](N(C)C)[C@H]2O)[C@](C)(OC)C[C@@H](C)C(=O)[C@H](C)[C@H]2NC(=O)O[C@@]21C [88c]
,,64 µg/mL,128 µg/mL,0.06 µg/mL,0.5 µg/mL,,,,,,,,,1 µg/mL,32 µg/mL,,,CC[C@H]1OC(=O)[C@H](C)[C@@H](OC(=O)NCCCCCCC#Cc2ccc3c(=O)[nH]cnc3c2)[C@H](C)[C@@H](O[C@@H]2O[C@H](C)C[C@H](N(C)C)[C@H]2O)[C@](C)(OC)C[C@@H](C)C(=O)[C@H](C)[C@H]2NC(=O)O[C@@]21C [88k]
,,,,,,,,,256 µg/mL,0.25 µg/mL,256 µg/mL,0.25 µg/mL,256 µg/mL,,,8 µg/mL,256 µg/mL,CC[C@H]1OC(=O)[C@H](C)[C@@H](OC(=O)NCCCCCCC#Cc2ccc3c(=O)n(CC(=O)O)cnc3c2)[C@H](C)[C@@H](O[C@@H]2O[C@H](C)C[C@H](N(C)C)[C@H]2O)[C@](C)(OC)C[C@@H](C)C(=O)[C@H](C)[C@H]2NC(=O)O[C@@]21C [88l]

# Reference: publication PMC11239830, “Synthetic macrolides overcoming MLSBK-resistant pathogens” (Cell Discovery, 2024)
